From patent publication US20190119282A1, “IMIDAZOPYRIDAZINES USEFUL AS INHIBITORS OF THE PAR-2 SIGNALING PATHWAY” (Vertex Pharmaceuticals Incorporated, priority 2013, published 2019)

Tests used:
Conditions in all cases: HT-29 cells
[1] = test system: Thrombin-stimulated Ca2+ response in HT-29 cells; experiment: Ca FLIPR TETRA assay, ANTAGONIST mode, stimulation with 1 U/mL Thrombin; format: cell-based, human
Procedure, shortened: (§1)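 HT-29 cells grown overnight in 1% FBS McCoy's medium were loaded with calcium 5 dye (45 min 37 °C, 15 min r.t.). Compounds were added and Ca2+ read for direct activation, then after 30 min at r.t. cells were stimulated with 8 μM SLIGKV, 1 U/mL thrombin, 3.1 U/mL trypsin or 0.6 μM UTP (final).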

[2] = target: T1, PAR2 (HT-29 cells, SLIGKV activation) (Homo sapiens, UniProt P55085); experiment: Ca FLIPR TETRA assay, ANTAGONIST mode, stimulation with 8 μM SLIGKV; format: cell-based
T1 construct: host or cells: HT-29 cells
T1 sequence (P55085 26-397): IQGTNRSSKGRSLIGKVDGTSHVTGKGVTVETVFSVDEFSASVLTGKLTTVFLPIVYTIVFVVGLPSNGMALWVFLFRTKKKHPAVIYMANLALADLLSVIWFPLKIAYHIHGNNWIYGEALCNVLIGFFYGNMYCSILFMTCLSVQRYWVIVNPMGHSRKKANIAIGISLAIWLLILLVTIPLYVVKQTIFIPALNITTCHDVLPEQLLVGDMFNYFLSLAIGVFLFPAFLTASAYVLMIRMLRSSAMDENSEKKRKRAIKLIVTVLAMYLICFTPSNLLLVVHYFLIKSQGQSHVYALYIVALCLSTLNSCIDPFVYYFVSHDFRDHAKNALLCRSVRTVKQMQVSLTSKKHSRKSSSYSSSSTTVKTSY
Procedure, shortened: as §1

[3] = target: T2, PAR2 (HT-29 cells, trypsin activation) (Homo sapiens, UniProt P55085); experiment: Ca FLIPR TETRA assay, ANTAGONIST mode, stimulation with 3.1 U/mL trypsin; format: cell-based
T2 construct: host or cells: HT-29 cells
T2 sequence (P55085 26-397): T1 sequence (P55085 26-397)
Procedure, shortened: as §1

[4] = test system: UTP-stimulated Ca2+ response in HT-29 cells; experiment: Ca FLIPR TETRA assay, ANTAGONIST mode, stimulation with 0.6 μM UTP; format: cell-based, human
Procedure, shortened: as §1

[5] = Homo sapiens, antagonist mode, stimulation with 1 U/mL Thrombin
[6] = antagonist mode, stimulation with 8 μM SLIGKV
[7] = antagonist mode, stimulation with 3.1 U/mL trypsin
[8] = Homo sapiens, antagonist mode, stimulation with 0.6 μM UTP
[9] = Homo sapiens, stimulation with 1 U/mL Thrombin
[10] = stimulation with 3.1 U/mL trypsin
[11] = Homo sapiens, stimulation with 0.6 μM UTP

IC50 [1, 5] [nM]	IC50 [2, 6] [nM]	IC50 [3, 7] [nM]	IC50 [4, 8] [nM]	SMILES	further results
> 1000	0.4	0.4	> 1000	CC(C)c1cc(-c2ccc(C(F)(F)F)c(F)c2)nn2cc(C(=O)N3CCN(C(=O)[C@H]4C[C@](O)(C(F)(F)F)C4)CC3(C)C)nc12 [Compound I-276]	–
–	–	–	–	CC(C)(C)c1cc(-c2ccc(F)cc2)nn2cc(C(=O)N3CN(Cc4ccccc4)C(=O)C3(C)C)nc12 [Compound I-565]	IC50 ([1]; Homo sapiens, antagonist mode, 1 U/mL Thrombin): > 1000 nM; IC50 ([2]; antagonist mode, 8 μM SLIGKV): 43 nM; IC50 ([3]; antagonist mode, 3.1 U/mL trypsin): 42 nM; IC50 ([4]; Homo sapiens, antagonist mode, 0.6 μM UTP): > 1000 nM
–	–	–	–	Cc1noc(C)c1CCC(=O)N1CCN(C(=O)c2cn3nc(-c4ccc(F)cc4)cc(C(C)C)c3n2)C[C@@H]1C [Compound I-136]	IC50 [1, 9]: > 5000 nM; IC50 ([2]; stimulation with 8 μM SLIGKV): 7 nM; IC50 [3, 10]: 34 nM; IC50 [4, 11]: 7700 nM
–	–	–	–	CC(C)c1cc(-c2ccc(F)cc2)nn2cc(C(=O)N3CCN(C(=O)C(C)(C)O)CC3(C)C)nc12 [Compound I-174]	IC50 [1, 9]: 35000 nM; IC50 ([2]; stimulation with 8 μM SLIGKV): 28 nM; IC50 [3, 10]: 55 nM; IC50 [4, 11]: 38000 nM
–	–	–	–	CC(C)c1cc(-c2ccc(F)cc2)nn2cc(C(=O)N3CCN(C(=O)CCn4cccn4)[C@@H](C)C3)nc12 [Compound I-135]	IC50 [1, 9]: 16000 nM; IC50 ([2]; stimulation with 8 μM SLIGKV): 22 nM; IC50 [3, 10]: 220 nM; IC50 [4, 11]: 17000 nM
–	–	–	–	CC(C)c1cc(-c2ccc(F)cc2)nn2cc(C(=O)N3CCN(C(=O)CCN4CCCCC4=O)[C@@H](C)C3)nc12 [Compound I-137]	IC50 [1, 9]: 43000 nM; IC50 ([2]; stimulation with 8 μM SLIGKV): 42 nM; IC50 [3, 10]: 240 nM; IC50 [4, 11]: 40000 nM
> 1000	1.7	1.8	> 1000	Cc1ccc(-c2cc(C(C)(C)C)c3nc(C(=O)N4CCN(C(=O)c5ncccn5)CC4(C)C)cn3n2)cc1F [Compound I-426]	–
673	4	5.1	360	CC(C)(C)c1cc(-c2ccccc2)nn2cc(C(=O)N3CCNC(=O)C3(C)C)nc12 [Compound I-348]	–
> 1000	1.3	1.3	> 1000	Cc1ncc(C(=O)N2CCN(C(=O)c3cn4nc(-c5ccc(F)cc5)cc(C(C)(C)C)c4n3)C(C)(C)C2)[nH]1 [Compound I-312]	–
> 50000	62.5	52.5	33000	CC(C)c1cc(-c2ccc(F)cc2)nn2cc(C(=O)N3C[C@H](C)OCC3(C)C)nc12 [Compound I-187]	–
> 1000	0.6	0.5	> 1000	Cc1ccc(-c2cc(C(C)(C)C)c3nc(C(=O)N4CCN(C(=O)c5cc(C)n[nH]5)CC4(C)C)cn3n2)cc1 [Compound I-395]	–
> 1000	20	60	> 1000	CC(C)c1cc(-c2cccc(F)c2)nn2cc(C(=O)N3CCNC(=O)C3(C)C)nc12 [Compound I-480]	–
> 1000	0.6	0.9	> 1000	CC(C)(C)c1cc(-c2ccc(F)cc2)nn2cc(C(=O)N3CCN(C(=O)c4ccno4)CC3(C)C)nc12 [Compound I-202]	–
> 1000	4.3	3	> 1000	COC(=O)C1(C(=O)N2CCN(C(=O)c3cn4nc(-c5ccc(F)cc5)cc(C(C)(C)C)c4n3)C(C)(C)C2)CC1 [Compound I-527]	–
> 1000	8.3	7.4	> 1000	Cc1nc(C(=O)N2CCN(C(=O)c3cn4nc(-c5ccc(F)c(C)c5)cc(C(C)C)c4n3)C(C)(C)C2)c[nH]1 [Compound I-380]	–
–	–	–	–	COCCC(=O)N1CCN(C(=O)c2cn3nc(-c4ccc(F)cc4)cc(C(C)C)c3n2)C[C@@H]1C [Compound I-129]	IC50 [1, 9]: 41000 nM; IC50 ([2]; stimulation with 8 μM SLIGKV): 120 nM; IC50 [3, 10]: 500 nM; IC50 [4, 11]: 37000 nM
> 1000	3.4	2.9	> 1000	CC(C)(C)c1cc(-c2ccc(F)cc2)nn2cc(C(=O)N3CCN(C(=O)C(C)(O)C(F)(F)F)CC3(C)C)nc12 (centres unmarked) [Compound I-317]	–
> 1000	107	163	> 1000	CC(C)(C)c1cc(C2CCC(F)(F)CC2)nn2cc(C(=O)N3CCN(C(=O)[C@H]4CC[C@H](C(=O)O)CC4)CC3(C)C)nc12 [Compound I-506]	–

IC50 [1, 5] [nM]	IC50 [2, 6] [nM]	IC50 [3, 7] [nM]	IC50 [4, 8] [nM]	SMILES	further results
> 1000	1	1	> 1000	COC(=O)[C@H]1CC[C@@H](C(=O)N2CCN(C(=O)c3cn4nc(-c5ccc(Br)cc5)cc(C(C)(C)C)c4n3)C(C)(C)C2)CC1 [Compound I-520]	–
830	1.7	1.7	> 1000	Cc1cccc(-c2cc(C(C)(C)C)c3nc(C(=O)N4CCN(C(=O)C5CC(C)(O)C5)CC4(C)C)cn3n2)c1 (centres unmarked) [Compound I-409]	–
630	2	2.8	980	CC(C)(C)c1cc(-c2ccc(F)cc2)nn2cc(C(=O)N3CCN(C(=O)c4cccnc4)CC3(C)C)nc12 [Compound I-287]	–
–	–	–	–	Cc1cc(-c2ccc(F)cc2)nn2cc(C(=O)N3CCN(C(=O)OCc4ccccc4)[C@@H](C)C3)nc12 [Compound I-8, (S)-Benzyl 4-(6-(4-fluorophenyl)-8-methylimidazo[1,2-b]pyridazine-2-carbonyl)-2-methylpiperazine-1-carboxylate]	IC50 [1, 9]: 43000 nM; IC50 ([2]; stimulation with 8 μM SLIGKV): 180 nM; IC50 [3, 10]: 690 nM; IC50 [4, 11]: 31000 nM
370	2.2	2.8	> 1000	Cc1cccc(-c2cc(C(C)(C)C)c3nc(C(=O)N4CCN(C(=O)c5cc(C)n[nH]5)CC4(C)C)cn3n2)c1 [Compound I-406]	–
> 1000	1.9	2	> 1000	Cc1ccc(-c2cc(C(C)(C)C)c3nc(C(=O)N4CCN(C(=O)c5cnc(C)[nH]5)CC4(C)C)cn3n2)cc1 [Compound I-422]	–
> 1000	19	29	> 1000	Cc1cc(-c2cc(C(C)C)c3nc(C(=O)N4CCN(C(=O)c5ncccn5)CC4(C)C)cn3n2)ccc1F [Compound I-377]	–
> 1000	3.2	4.8	> 1000	CC(C)c1cc(-c2ccc(Cl)cc2)nn2cc(C(=O)N3CCN(C(=O)[C@H]4C[C@@H](O)C4)CC3(C)C)nc12 [Compound I-543]	–
> 1000	1.7	2.4	> 1000	Cc1cc(C(=O)N2CCN(C(=O)c3cn4nc(-c5ccc(F)cc5)cc(C(C)(C)F)c4n3)C(C)(C)C2)[nH]n1 [Compound I-420]	–
–	1.1	1.9	–	COC(=O)C1CC(C(=O)N2CCN(C(=O)c3cn4nc(-c5ccc(Cl)cc5)cc(C(C)C)c4n3)C(C)(C)C2)C1 (centres unmarked) [Compound I-545]	IC50 ([1]; antagonist mode, stimulation with 1 U/mL Thrombin): > 1000 nM; IC50 ([4]; antagonist mode, stimulation with 0.6 μM UTP): > 1000 nM
> 1000	1.2	2.2	> 1000	CC(C)(C)c1cc(-c2ccc(F)c(Cl)c2)nn2cc(C(=O)N3CCN(C(=O)c4ncccn4)CC3(C)C)nc12 [Compound I-464]	–
1500	27.7	38.7	1800	CC(C)[C@@H](O)C(=O)N1CCN(C(=O)c2cn3nc(-c4ccc(F)cc4)cc(N4C[C@@H](C)O[C@@H](C)C4)c3n2)C(C)(C)C1 [Compound I-186]	–
> 1000	143	360	> 1000	CC(C)c1cc(-c2ccc(OC(F)(F)F)cc2)nn2cc(C(=O)N3CCN(C(=O)C(C)(C)O)CC3(C)C)nc12 [Compound I-219]	–
690	0.9	4.3	> 1000	Cc1cccc(-c2cc(C(C)(C)C)c3nc(C(=O)N4CCN(C(=O)c5ccn[nH]5)CC4(C)C)cn3n2)c1 [Compound I-404]	–
> 1000	16	14.2	> 1000	CC(C)c1cc(-c2ccc(C(F)(F)F)cc2)nn2cc(C(=O)N3CCN(C(=O)c4cccnn4)CC3(C)C)nc12 [Compound I-282]	–
> 1000	33	45	> 1000	CC(C)c1cc(-c2ccc(F)cc2)nn2cc(C(=O)N3CCN(C(=O)CC(C)(C)O)CC3(C)C)nc12 [Compound I-305]	–
> 1000	0.8	0.8	> 1000	CC(C)(C)c1cc(-c2ccc(F)cc2)nn2cc(C(=O)N3CCN(C4CC4)C(=O)C3(C)C)nc12 [Compound I-206]	–
